The star is where a group is joined. FITC = O=C1OC2(c3ccc(O)cc3Oc3cc(O)ccc32)c2ccc(NC(=S)*)cc21

Data set [1] concerns tubulin. As to conditions: tubulin mix with GTP, 30 min at 37° C., 561 nm channel.
Method: Hexapeptide ‘NV’-Tubulin Interaction Study on Biotin Micropatterned Surface
Biotin micropatterned surfaces were prepared as previously described method. A flow chamber of around 5 μL was built from one biotin-patterned glass surface and one poly-L-lysine (PLL)-PEG passivated counter glass, separated by two strips of double sticky tape (Tesa). Flow chamber was equilibrated with BRB80 and incubated with β-casein for 10 min followed by washing with 20 μL BRB80 for complete removal of unbound β-casein. 100 nM neutravidin was flowed into the flow chamber and incubated for 10 min followed by removal of excess neutravidin with 20 μL BRB80. […] Then, the flow chamber was filled with 18.5 μM tubulin mix (80:20 unlabeled tubulin and Alexa568 tubulin) in BRB80 supplemented with 3 mM GTP, 10 mM MgCl2, and an oxygen scavenger system (50 mM glucose, 1 mg mL^−1 glucose oxidase, and 0.5 mg mL^−1 catalase) on an ice cold metal block and placed to the TIRF microscope at 37° C. Then flow chamber was imaged using an IX-81 total internal reflection fluorescence (TIRF) microscope (Olympus) with a 60×TIRFM objective (Olympus; Hamburg, Germany) and an Andor iXon3 897 Camera. Control experiment was performed, following previously described method without immobilizing ‘Bio-NV’ on biotin micropatterned surface.
The test system of data set [2] is neuronally differentiated PC12 cells. Put plainly: Neuroprotection against anti-NGF toxicity (NGF deprivation), intact nuclear counting. It is filed as cell-based, rat. The settings on record: higher concentrations of NV. The procedure:
On the fifth day they were treated overnight with anti-NGF along with different doses of inhibitor NV (FIG. 4d). […] The cells were observed under the microscope on the day following treatment; survival was assessed by intact nuclear counting assay (FIG. 4d).
Rat pheochromocytoma cells (PC12) cells were cultured as described previously (ESI) in RPMI medium supplemented with 10% heat-inactivated horse serum (HS) and 5% heat-inactivated fetal bovine serum. Neuronal differentiation of these cells was induced by NGF (100 ng/mL) in medium containing 1% horse serum for 6 days before the treatment, as previously described.
The cell viability was checked by the intact nuclear counting method. This assay was performed as described previously. In brief, a detergent containing the buffer that dissolved only the plasma membrane was added to the cells, the nuclear membrane thus remained intact. The intact nuclei were then counted on a haemocytometer under a light microscope. The number of live cells was expressed as percentage of the total cell population.

Data set [3] has as its system amyloid beta. As to conditions: previous study; cited from earlier work.
In data set [4] the test system is tau. The settings on record: previous study; cited from earlier work.
Data set [5] concerns polymerized microtubules. Put plainly: FITC-NV binding with microtubule at tubulin polymerization. The settings on record: FITC-NV during polymerization of alexa-568 labeled tubulin with GTP. The method, then:
Hexapeptide NV Binding with Microtubule at Tubulin Polymerization
Mixture 1: Alexa Fluor 568-labeled tubulin (0.5 μL, 15 mg mL^−1, 65% labelling ratio), Tubulin (2 μL, 20 mg mL^−1), FITC-NV (0.5 μL, 1 mM), GTP (0.2 μL, […]) and BRB80 (46.8 μL; 80 mM PIPES, 1 mM EGTA; 1 mM MgCl2, pH adjusted to 6.8 by using concentrated KOH solution) were mixed on ice. The mixture was incubated for 30 min on 37° C. water bath.
Mixture 2: Taxol (0.4 μL, 1 mM) and BRB80 (180 μL) were mixed.
Final Mixture: After 30 min incubation 50 μL warmed mixture 2 was added into mixture 1. Then this mixture was separated in a table top centrifuge (7 min, 12000 rpm, Eppendorf 5810R bench-top centrifuge, rotor type F-34-6-38). The coloured pellet was resuspended in warm mixture 2. 10 μL resuspended solution of microtubule was placed on glass cover slip and imaged under inverted fluorescence microscope (NIKON Ti-U) in 40× magnification using ANDOR iXON3 camera.

Regarding Biotin-NAPVSIPQ-NH2 [Biotin-NV], in data set [1], the “binding of tubulin to immobilized Biotin-NV on micropatterns” value is “localized binding of tubulin”.
Turning to H-NAVSIQ-NH2 [NV, NH2-NAVSIQ-NH2], the “toxicity to control cells” value in data set [2] is “showed toxicity to control cells”.
On to NH2-NAPVSIPQ-NH2 [NQ], for which the “inhibition of amyloid beta fibrillation in vitro” value in data set [3] is reported as “inhibits amyloid beta fibrillation in vitro”. For the same substance, the “inhibition of tau hyper phosphorylation in vivo” value in data set [4] is “inhibit tau hyper phosphorylation in vivo”.
Take {FITC}-NAVSIQ-NH2 [FITC-NV]: in data set [5], the “binding with polymerized microtubules” value is “binds with polymerized microtubules”.
